Experimental data: patent US6479628B1, “Methods and materials relating to IMPDH and GMP production” (Arch Development Corporation, priority 1988, dated 2002)

Assays:
[1] = tested on: IMP1 cell clone (transfected V15 hamster cells); details: mycophenolic acid 2 μg/mL in culture medium
Experimental: After introduction of the construct into the hamster cells, mycophenolic acid (2 μg/mL) was added to the culture medium to select for those cells that had integrated the construct into their genetic material. Those cells that have integrated the construct into their genetic material produce the IMPDH enzyme and are therefore resistant to the cytotoxic effects of mycophenolic acid.
[Dulbecco's modified MEM containing 5% fetal bovine serum, aminopterin (2 μg/mL), and mycophenolic acid (25 μg/mL), and supplemented with hypoxanthine (15 μg/mL), thymidine (10 μg/mL), and xanthine (250 μg/mL)]. The ability of the cells to grow in the selective medium is attributable to the production of the E. coli gpt enzyme, which catalyzes the production of xanthine monophosphate from the reaction of xanthine and phosphoribosyl pyroposphate. Presence of the enzyme compensates for the purine de novo synthetic block imposed by the presence of aminopterin and MPA.

[2] = tested on: parental V79 cells; experiment: Resistance of parental cells to MPA cytotoxicity; assay type: cell-based, Chinese hamster
[3] = molecular target: purified Chinese hamster IMPDH (Cricetulus griseus, UniProt P12269); experiment: Kinetic studies of purified IMPDH (IMP-dependent NAD reduction, absorbance at 340 nm)
Sequence of purified Chinese hamster IMPDH (P12269 whole entry): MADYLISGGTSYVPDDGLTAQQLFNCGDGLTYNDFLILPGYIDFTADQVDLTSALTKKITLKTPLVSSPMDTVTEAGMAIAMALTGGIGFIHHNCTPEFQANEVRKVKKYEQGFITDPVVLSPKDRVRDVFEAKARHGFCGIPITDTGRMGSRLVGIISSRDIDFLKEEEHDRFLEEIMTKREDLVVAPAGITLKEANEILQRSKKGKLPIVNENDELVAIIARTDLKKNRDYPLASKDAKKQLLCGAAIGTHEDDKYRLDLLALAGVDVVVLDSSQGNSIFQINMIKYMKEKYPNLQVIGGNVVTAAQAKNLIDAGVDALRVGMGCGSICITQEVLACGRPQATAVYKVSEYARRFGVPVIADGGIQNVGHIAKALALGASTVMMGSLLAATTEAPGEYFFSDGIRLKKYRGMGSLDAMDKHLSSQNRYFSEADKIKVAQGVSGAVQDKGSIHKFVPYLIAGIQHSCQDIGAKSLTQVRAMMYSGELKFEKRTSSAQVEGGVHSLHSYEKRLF
Experimental: Kinetic studies were carried out by varying the substrate conditions. In all cases, linear reciprocal plots were defined by simple regression analysis of the data.

[4] = tested on: V79 cells; experiment: Growth of control and MNNG-treated V79 cells incubated with MPA; assay type: cell-based, Chinese hamster; details: untreated 5.0±0.3
[5] = tested on: VM1 through VM4 variants of V79 cells; experiment: Resistance of stepwise-selected cell variants to MPA cytotoxicity; assay type: cell-based, Chinese hamster
Experimental: According to the present invention, the resistance level of one of these cell variants was further increased by a stepwise selection in the presence of increasing concentrations of MPA. After adaptation to the higher concentration of MPA, the cells were seeded in medium containing an increased concentration of MPA at 200 cells per 60-mm petri dish, and MPA-resistant colonies were isolated 8 days later.

[6] = molecular target: E. coli IMPDH enzyme (Escherichia coli, UniProt P0ADG7); details: unlike mammalian cell enzymes; cited from earlier work
Sequence of E. coli IMPDH enzyme (P0ADG7 whole entry): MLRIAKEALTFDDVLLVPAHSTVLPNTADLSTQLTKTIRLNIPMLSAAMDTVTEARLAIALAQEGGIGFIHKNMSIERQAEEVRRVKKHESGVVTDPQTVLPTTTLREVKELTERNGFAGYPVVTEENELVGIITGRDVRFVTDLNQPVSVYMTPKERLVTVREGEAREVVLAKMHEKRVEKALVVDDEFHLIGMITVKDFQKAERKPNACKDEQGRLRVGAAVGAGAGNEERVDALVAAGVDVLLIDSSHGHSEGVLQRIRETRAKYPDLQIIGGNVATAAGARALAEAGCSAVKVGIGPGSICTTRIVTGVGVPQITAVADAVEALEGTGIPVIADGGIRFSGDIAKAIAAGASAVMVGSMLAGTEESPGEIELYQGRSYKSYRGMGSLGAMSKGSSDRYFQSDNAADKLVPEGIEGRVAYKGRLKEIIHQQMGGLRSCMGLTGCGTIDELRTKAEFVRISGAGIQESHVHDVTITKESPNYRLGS

Row | Compound | resistance of cell clone to cytotoxic effects [1] | MPA concentration to which cells are resistant [2] [µg/mL] | Ki ([3]; sensitivity of Chinese hamster enzyme to MPA) | cells per Petri dish after 5 days of growth, mean (±SD) ([4]; MPA at 0.1 μg/mL) | cells per Petri dish after 5 days of growth, mean (±SD) ([4]; MPA at 0.3 μg/mL) | MPA concentration to which cells are resistant ([5]; VM1 variant) [µg/mL] | MPA concentration to which cells are resistant ([5]; VM2 variant) [µg/mL] | MPA concentration to which cells are resistant ([5]; VM3 variant) [µg/mL] | MPA concentration to which cells are resistant ([5]; VM4 variant) [µg/mL] | sensitivity to the inhibitory effect [6] | Km ([3]; substrate of Chinese hamster enzyme, linear reciprocal plots) [µM]
1 | COc1c(C)c2c(c(O)c1C/C=C(\C)CCC(=O)O)C(=O)OC2 [MPA, mycophenolic acid] | resistant | 0.1 | nanomolar range | 1.4±0.2 ×10^6 cells per Petri dish | 0.2±0.05 ×10^6 cells per Petri dish | 5 | 10 | 25 | 50 | insensitive | –
2 | NC(=O)c1ccc[n+]([C@@H]2O[C@H](COP(=O)([O-])OP(=O)(O)OC[C@H]3O[C@@H](n4cnc5c(N)ncnc54)[C@H](O)[C@@H]3O)[C@@H](O)[C@H]2O)c1 [NAD] | – | – | – | – | – | – | – | – | – | – | 29
